Assay results: patent publication US10689354B2, “Aminoazole derivative” (Teijin Pharma Limited, priority 2015, dated 2020)

Tests used:
[1] = target: T1, androgen receptor (AR-LBD) (Rattus norvegicus, UniProt P15207); test: Evaluation of androgen receptor affinity (PolarScreen Androgen Receptor Competitor Assay Kit, Red; fluorescence polarization); conditions: 22° C. for 5 hours, relative to binding rate of 1 μM DHT, read-out: AR affinity (pEC50) (converted)
T1 construct: 5 μL of 2×AR-LBD/Fluoromone AL Red Complex contained in the kit; purchased Invitrogen
T1 sequence (P15207 651-882 limits assumed): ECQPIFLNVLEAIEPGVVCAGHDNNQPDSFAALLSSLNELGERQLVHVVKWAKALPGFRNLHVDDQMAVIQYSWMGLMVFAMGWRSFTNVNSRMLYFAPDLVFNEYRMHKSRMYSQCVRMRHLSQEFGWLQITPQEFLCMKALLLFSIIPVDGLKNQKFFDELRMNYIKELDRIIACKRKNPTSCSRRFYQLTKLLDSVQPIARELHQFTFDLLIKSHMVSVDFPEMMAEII
Outline: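 Fluorescence polarization competition assay: compound was incubated in duplicate with the kit's AR-LBD/Fluoromone AL Red complex for 5 h at 22 °C. Binding was expressed relative to 1 μM DHT, and pEC50 was derived by 4-parameter fit.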

human androgen receptor = target: T2, human androgen receptor (Homo sapiens, UniProt P10275); test: Reporter assay of an androgen receptor responsive sequence (luciferase, transiently transfected HEK293 cells); assay type: cell-based; conditions: 24 hours incubation, relative to activity of 100 nM DHT, read-out: AR transcriptive activity (pEC50) (converted)
T2 construct: expressed in transfected cells; host or cells: HEK293
T2 sequence (P10275 1-920): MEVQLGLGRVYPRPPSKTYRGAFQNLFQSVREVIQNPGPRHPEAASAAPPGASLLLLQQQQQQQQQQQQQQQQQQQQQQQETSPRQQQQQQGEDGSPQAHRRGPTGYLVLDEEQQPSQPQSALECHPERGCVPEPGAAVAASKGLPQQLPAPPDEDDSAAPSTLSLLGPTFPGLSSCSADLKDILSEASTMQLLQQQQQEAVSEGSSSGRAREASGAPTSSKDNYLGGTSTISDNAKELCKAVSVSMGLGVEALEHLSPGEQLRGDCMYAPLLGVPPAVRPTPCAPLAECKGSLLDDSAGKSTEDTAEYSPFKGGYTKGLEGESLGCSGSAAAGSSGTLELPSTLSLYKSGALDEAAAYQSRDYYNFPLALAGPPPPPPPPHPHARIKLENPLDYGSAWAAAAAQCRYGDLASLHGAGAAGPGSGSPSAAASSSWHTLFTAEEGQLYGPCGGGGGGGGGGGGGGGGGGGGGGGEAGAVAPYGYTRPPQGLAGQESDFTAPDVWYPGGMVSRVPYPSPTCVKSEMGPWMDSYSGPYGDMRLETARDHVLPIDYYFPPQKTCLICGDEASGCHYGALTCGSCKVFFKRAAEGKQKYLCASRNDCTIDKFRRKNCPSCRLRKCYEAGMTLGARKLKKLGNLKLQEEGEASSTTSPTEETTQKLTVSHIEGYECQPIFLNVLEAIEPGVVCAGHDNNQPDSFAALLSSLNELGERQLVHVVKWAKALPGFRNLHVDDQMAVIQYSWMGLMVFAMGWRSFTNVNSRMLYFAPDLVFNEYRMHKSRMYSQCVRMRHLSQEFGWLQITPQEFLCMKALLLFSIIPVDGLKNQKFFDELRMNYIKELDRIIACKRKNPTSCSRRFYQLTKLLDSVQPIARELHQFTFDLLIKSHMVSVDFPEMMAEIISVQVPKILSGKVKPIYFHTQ
Outline: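 HEK293 cells transiently transfected for 3 h with ARE-firefly luciferase, full-length human AR and TK-Renilla plasmids, then exposed to compound for 24 h at 37 °C in 5% charcoal-treated FBS/DMEM. Dual-Glo luminescence read; pEC50 from 4-parameter fit relative to 100 nM DHT.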

Row | EC50 [1] [µM] | EC50 (human androgen receptor) [µM] | SMILES
1 | 0.0501 | 0.2 | Cc1sc(N(Cc2csc(C(C)C)n2)c2ccc(C#N)cc2)nc1C(=O)NS(C)(=O)=O [Compound 456, 2-[4-cyano-N-[(2-isopropylthiazol-4-yl)methyl]anilino]-5-methyl-N-methylsulfonyl-thiazole-4-carboxamide]
2 | 0.0398 | 0.501 | Cc1sc(N(Cc2ccc(OC(F)(F)F)cc2F)c2ccc(C#N)cc2)nc1C(=O)NS(C)(=O)=O [Example 178, 2-[4-cyano-N-[[2-fluoro-4-(trifluoromethoxy)phenyl]methyl]anilino]-5-methyl-N-methylsulfonyl-thiazole-4-carboxamide]
3 | 0.0631 | 0.0501 | CS(=O)(=O)NC(=O)c1nc(N(Cc2ccc(OC(F)F)cc2)c2ccc(C#N)cc2)sc1Cl [Example 277, 5-chloro-2-[4-cyano-N-[[4-(difluoromethoxy)phenyl]methyl]anilino]-N-methylsulfonyl-thiazole-4-carboxamide]
4 | 0.1 | 0.501 | Cc1sc(N(CCc2ccc(OC(F)F)cc2)Cc2ccccc2)nc1C(=O)NS(C)(=O)=O [Compound 160, 2-[benzyl-[2-[4-(difluoromethoxy)phenyl]ethyl]amino]-5-methyl-N-methylsulfonyl-thiazole-4-carboxamide]
5 | 0.0398 | 0.794 | COc1cccc(CN(CCc2ccc(Cl)cc2)c2nc(C(=O)NS(C)(=O)=O)c(C)s2)n1 [Compound 502, 2-[2-(4-chlorophenyl)ethyl-[(6-methoxy-2-pyridyl)methyl]amino]-5-methyl-N-methylsulfonyl-thiazole-4-carboxamide]
6 | 0.158 | 1 | Cc1sc(N(Cc2ccc(F)cc2)[C@H]2C[C@@H]2c2ccccc2)nc1C(=O)NS(C)(=O)=O (racemic) [Compound 149, 2-[(4-fluorophenyl)methyl-(trans-2-phenylcyclopropyl)amino]-5-methyl-N-methylsulfonyl-thiazole-4-carboxamide]
7 | 0.0316 | 0.2 | Cc1sc(N(Cc2ccc(C3CC3)cc2)c2ccc(C#N)cc2)nc1C(=O)NS(C)(=O)=O [Compound 588, 2-[4-cyano-N-[(4-cyclopropylphenyl)methyl]anilino]-5-methyl-N-methylsulfonyl-thiazole-4-carboxamide]
8 | 0.158 | 0.501 | Cc1ccccc1CN(c1ccc(C#N)cc1)c1nc(C(=O)NS(C)(=O)=O)c(C)s1 [Compound 45, 2-[4-cyano-N-(o-tolylmethyl)anilino]-5-methyl-N-methylsulfonyl-thiazole-4-carboxamide]
9 | 0.0316 | 0.0398 | CS(=O)(=O)NC(=O)c1nc(N(Cc2cc3ccccc3s2)c2ccc(C#N)cc2)sc1Br [Compound 609, 2-[N-(benzothiophen-2-ylmethyl)-4-cyano-anilino]-5-bromo-N-methylsulfonyl-thiazole-4-carboxamide]
10 | > 2 | > 10 | Cc1oc(N(CC2CCC(F)(F)CC2)c2ccc(C#N)cc2)nc1C(=O)NS(C)(=O)=O [Compound 621, 2-[4-cyano-N-[(4,4-difluorocyclohexyl)methyl]anilino]-5-methyl-N-methylsulfonyl-oxazole-4-carboxamide]
11 | > 2 | 6.31 | COc1ccc(CN(c2ccc(C#N)cc2)c2nc(C(=O)NS(C)(=O)=O)c(C)s2)nn1 [Compound 516, 2-[4-cyano-N-[(6-methoxypyridazin-3-yl)methyl]anilino]-5-methyl-N-methylsulfonyl-thiazole-4-carboxamide]
12 | 0.0794 | 5.01 | COc1cccc(CCN(Cc2ccccc2)c2nc(C(=O)NS(C)(=O)=O)c(C)s2)c1 [Example 308, 2-[benzyl-[2-(3-methoxyphenyl)ethyl]amino]-5-methyl-N-methylsulfonyl-thiazole-4-carboxamide]
13 | 0.501 | 1 | Cc1sc(N(Cc2ncc(F)cc2Cl)c2ccc(C#N)cc2)nc1C(=O)NS(C)(=O)=O [Example 179, 2-[N-[(3-chloro-5-fluoro-2-pyridyl)methyl]-4-cyano-anilino]-5-methyl-N-methylsulfonyl-thiazole-4-carboxamide]
14 | 0.0398 | 0.0251 | Cc1sc(N(Cc2ccc(C(F)F)cc2)c2ccc(C#N)cc2)nc1C(=O)NS(C)(=O)=O [Compound 94, 2-[4-cyano-N-[[4-(difluoromethyl)phenyl]methyl]anilino]-5-methyl-N-methylsulfonyl-thiazole-4-carboxamide]
15 | 0.02 | > 10 | COCCCS(=O)(=O)NC(=O)c1nc(N(Cc2ccc(Cl)cc2)c2ccc(C#N)cc2)sc1C1CC1 [Compound 665, 2-[N-[(4-chlorophenyl)methyl]-4-cyano-anilino]-5-cyclopropyl-N-(3-methoxypropylsulfonyl)thiazole-4-carboxamide]
16 | 0.0316 | 0.0501 | COCCCS(=O)(=O)NC(=O)c1nc(N(Cc2ccc(Br)cc2)c2ccc(C#N)cc2)sc1C [Example 191, 2-[N-[(4-bromophenyl)methyl]-4-cyano-anilino]-N-(3-methoxypropylsulfonyl)-5-methyl-thiazole-4-carboxamide]
17 | 0.0316 | 0.0631 | Cc1sc(N(Cc2ccc(OC(F)(F)F)cc2)c2ccc(C#N)cc2)nc1C(=O)NS(C)(=O)=O [Compound 7, 2-[4-cyano-N-[[4-(trifluoromethoxy)phenyl]methyl]anilino]-5-methyl-N-methylsulfonyl-thiazole-4-carboxamide]
18 | 0.126 | 3.98 | Cc1sc(N(Cc2ccccc2)CC(F)(F)c2ccc(Cl)cc2)nc1C(=O)NS(C)(=O)=O [Compound 329, 2-[benzyl-[2-(4-chlorophenyl)-2,2-difluoro-ethyl]amino]-5-methyl-N-methylsulfonyl-thiazole-4-carboxamide]
19 | 0.0316 | 0.398 | CCCCCCN(c1ccc(C#N)cc1)c1nc(C(=O)NS(C)(=O)=O)c(C)s1 [Compound 75, 2-(4-cyano-N-hexyl-anilino)-5-methyl-N-methylsulfonyl-thiazole-4-carboxamide]
20 | 0.1 | 0.251 | Cc1sc(N(Cc2ccc3c(c2)C(=O)CCO3)c2ccc(C#N)cc2)nc1C(=O)NS(C)(=O)=O [Compound 138, 2-[4-cyano-N-[(4-oxochroman-6-yl)methyl]anilino]-5-methyl-N-methylsulfonyl-thiazole-4-carboxamide]
21 | 0.0398 | 2 | COc1cccc(CN(CCc2ccc(OC(F)(F)F)cc2)c2nc(C(=O)NS(C)(=O)=O)c(C)s2)n1 [Compound 505, 2-[(6-methoxy-2-pyridyl)methyl-[2-[4-(trifluoromethoxy)phenyl]ethyl]amino]-5-methyl-N-methylsulfonyl-thiazole-4-carboxamide]
22 | 0.2 | 3.16 | CCc1oc(N(Cc2ccc(C(F)(F)F)cn2)c2ccc(C#N)cc2)nc1C(=O)NS(C)(=O)=O [Compound 638, 2-[4-cyano-N-[[5-(trifluoromethyl)-2-pyridyl]methyl]anilino]-5-ethyl-N-methylsulfonyl-oxazole-4-carboxamide]
23 | 0.316 | 5.01 | Cc1cc(CN(CCc2ccc(Cl)cc2)c2nc(C(=O)NS(C)(=O)=O)c(C)s2)no1 [Compound 508, 2-[2-(4-chlorophenyl)ethyl-[(5-methylisoxazol-3-yl)methyl]amino]-5-methyl-N-methylsulfonyl-thiazole-4-carboxamide]
24 | 0.126 | 3.98 | Cc1oc(N(Cc2cccc(F)c2)c2ccc(C#N)cc2)nc1C(=O)NS(C)(=O)=O [Compound 612, 2-[4-cyano-N-[(3-fluorophenyl)methyl]anilino]-5-methyl-N-methylsulfonyl-oxazole-4-carboxamide]
